Data taken from patent US5410049A, “Benzodiazepine derivatives, compositions containing them and their use in therapy” (Merck Sharpe & Dohme Ltd., priority 1991, dated 1995).
Where two headings read alike, the source gives them in different places.

Tests used:
[1] = target: T1, CCK receptor (pancreas) (Rattus norvegicus, UniProt P30551); assay: CCK Receptor Binding (Pancreas), inhibition of 125I-CCK-8 binding; parameters: species or system rat (male Sprague-Dawley)
T1 construct: The whole pancreas was dissected free of fat tissue and was homogenized; from tissue; host or cells: pancreas of male Sprague-Dawley rats (membrane homogenate)
T1 sequence (P30551 1-444): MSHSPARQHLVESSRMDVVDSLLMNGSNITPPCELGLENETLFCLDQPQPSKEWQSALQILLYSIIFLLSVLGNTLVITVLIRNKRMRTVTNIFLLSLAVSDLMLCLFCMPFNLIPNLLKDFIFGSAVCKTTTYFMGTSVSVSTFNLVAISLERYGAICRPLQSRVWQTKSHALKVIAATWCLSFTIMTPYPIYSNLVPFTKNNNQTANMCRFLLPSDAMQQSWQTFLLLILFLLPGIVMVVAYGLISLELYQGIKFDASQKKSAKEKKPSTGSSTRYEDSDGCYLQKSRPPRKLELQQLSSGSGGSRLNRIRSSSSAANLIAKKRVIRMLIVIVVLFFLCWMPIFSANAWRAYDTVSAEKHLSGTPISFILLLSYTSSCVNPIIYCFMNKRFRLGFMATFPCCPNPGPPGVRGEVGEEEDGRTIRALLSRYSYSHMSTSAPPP
Procedure: Male Sprague-Dawley rats (150-200 g) were sacrificed by decapitation. The whole pancreas was dissected free of fat tissue and was homogenized in 25 volumes of ice-cold 10 mMN-2-hydroxyethyl-piperazine-N'-2-ethane sulphonic acid (HEPES) buffer with 0.1% soya bean trypsin inhibitor (pH 7.4 at 25° C.) with a Kinematica Polytron. The homogenates were centrifuged at 47,800 g for 10 min. Pellets were resuspended in 10 volumes of binding assay buffer (20mM (HEPES)), 1 mM ethylene glycol-bis-(β-aminoethylether-N,N'-tetraacetic acid) (EGTA), 5mM MgCl2, 150 mM NaCl, bacitracin 0.25 mg/ml, soya bean trypsin inhibitor 0.1 mg/ml, and bovine serum albumin 2 mg/ml pH 6.5 at 25° C.) using a Teflon (trademark) homogenizer, 15 strokes at 500 rpm. The homogenate was further diluted in binding assay buffer to give a final concentration of 0.5 mg original wet weight/1 ml buffer. […] All assays were run in duplicate. The reaction mixtures were incubated at 25° C. for 2 hours and the reaction terminated by rapid filtration (Brandell 24 well cell harvester) over Whatman GF/C filters, washing 3×4 mls with ice-cold 100 Mm NaCl. The radioactivity on the filters was counted with a LKB gamma counter.

[2] = target: T2, CCK receptor (brain) (Cavia porcellus, UniProt H0VZC5); assay: CCK Receptor Binding (Brain), inhibition of 125I-CCK-8 binding; parameters: species or system guinea pig (male Hartley); settings: guinea pig cortex membranes, 50 pM 125I-CCK-8, pH 6.5, 25° C., 2 hours
T2 construct: the cortex was removed and homogenized in 25 mL ice-cold 0.32M sucrose; from tissue; host or cells: cortex of male Hartley guinea pigs (P2 membrane pellet)
T2 sequence (H0VZC5 1-426): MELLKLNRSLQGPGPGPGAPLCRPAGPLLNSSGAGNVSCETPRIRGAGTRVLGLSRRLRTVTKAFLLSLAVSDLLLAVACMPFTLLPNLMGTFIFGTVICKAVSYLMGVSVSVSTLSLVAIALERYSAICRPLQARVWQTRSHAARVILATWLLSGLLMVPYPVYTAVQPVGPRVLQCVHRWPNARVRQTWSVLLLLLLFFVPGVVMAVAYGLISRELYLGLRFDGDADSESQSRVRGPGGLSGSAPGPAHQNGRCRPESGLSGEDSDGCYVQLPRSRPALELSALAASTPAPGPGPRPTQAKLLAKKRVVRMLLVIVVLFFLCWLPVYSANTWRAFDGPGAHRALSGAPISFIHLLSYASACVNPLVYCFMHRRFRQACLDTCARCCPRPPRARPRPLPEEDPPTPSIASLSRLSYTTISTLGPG
Procedure: CCK-8 sulphated was radiolabelled and the binding was performed according to the description for the pancreas method with minor modifications.
Male Hartley guinea pigs (300-500 g) were sacrificed by decapitation and the cortex was removed and homogenized in 25 mL ice-cold 0.32M sucrose. The homogenates were centrifuged at 1000 g for 10 minutes and the resulting supernatant was recentrifuged at 20,000 g for 20 minutes. The P2 pellet was resuspended in binding assay buffer (20mM HEPES, 5 mM MgCl2, 0.25 mg/ml bacitracin, 1 mM EGTA pH 6.5 at 25° C.), using a Teflon (trademark) homogenizer (5 strokes at 500 rpm) to give a final concentration of 10 mg original wet weight/1.2 ml buffer. For the binding assay, 50 μl of buffer (for total binding) or unlabelled CCK-8 sulphated to give a final concentration of 1 μM (for nonspecific binding) or the compounds of Formula I (for determination of inhibition of ^125 I-CCK-8 binding) and 50 μl of 500 pM ^125 I-CCK-8 (i.e. final concentration of 50 pM) were added to 400 μl of the membrane suspensions in microfuge tubes. All assays were run in duplicate. The reaction mixtures were incubated at 25° C. for 2 hours and then the reaction was terminated by rapid filtration (Brandell 24 well cell harvester) on Whatman GF/C filters with 3×5 ml washes of cold 100 mM NaCl. The radioactivity on the filters was counted with a LKB gamma counter.
Drug displacement studies were performed with at least 10 concentrations of compounds of Formula I and the IC50 values were determined by regression analysis IC50 refers to the concentration of the compound required to inhibit 50% of specific binding of ^125 I-CCK-8.

[3] = rat pancreas membranes, 50 pM 125I-CCK-8, pH 6.5, 25° C., 2 hours, read-out: CCK RECEPTOR BINDING RESULTS IC50, 125I-CCK Pancreas

SMILES	IC50 [1, 3] [nM]	IC50 [2] [nM]	IC50 [1] [nM]
CN1C(=O)[C@H](NC(=O)Nc2cccc(C3=C(O)CNC3=O)c2)N=C(c2ccccc2)c2ccccc21 [Example 3, N-[3(R)-2,3-Dihydro-1-methyl-2-oxo-5-phenyl-1H-1,4-benzodiazepin-3-yl]N'-[3-(2,5-dihydro-4-hydroxy-2-oxopyrrol-3-yl)phenyl]urea]	–	16	> 3000
CN1C(=O)[C@H](NC(=O)Nc2cccc(C3=C(O)CNC3=O)c2)N=C(C2CCCCC2)c2ccccc21 [Example 6, N-[3(R)-5-Cyclohexyl-2,3-dihydro-1-methyl-2-oxo-1H-1,4-benzodiazepin-3-yl]N'-[3-(2,5-dihydro-4-hydroxy-2oxopyrrol-3-yl)phenyl]urea]	110	0.67	–
CN1CC(O)=C(c2cccc(NC(=O)NC3N=C(C4CCCCC4)c4ccccc4N(C)C3=O)c2)C1=O (racemic) [Example 4, N-[3(R,S)-5-Cyclohexyl-2,3-dihydro-1-methyl-2-oxo-1H-1,4-benzodiazepin-3-yl]N'-[3-(2,5-dihydro-4-hydroxy-N-methyl-2-oxopyrrol-3-yl)phenyl]urea]	56	6.3	–

The remaining molecules from weak to strong by IC50 [1, 3], led by results:

IC50 [1, 3] [nM]	IC50 [2] [nM]	SMILES	IC50 [1] [nM]
280	2.5	CN1CC(O)=C(c2cccc(NC(=O)N[C@@H]3N=C(C4CCCCC4)c4ccccc4N(C)C3=O)c2)C1=O [Example 5, N-[3(R)-5-Cyclohexyl-2,3-dihydro-1-methyl-2-oxo-1H-1,4-benzodiazepin-3-yl]N'-[3-(2,5-dihydro-4-hydroxy-N-methyl-2-oxopyrrol-3-yl)phenyl] urea]	–
13	3.9	CN1C(=O)C(NC(=O)Nc2cccc(C3=C(O)CSC3=O)c2)N=C(C2CCCCC2)c2ccccc21 (racemic) [Example 1, N-[3(R,S)-5-Cyclohexyl-2,3,dihydro-1-methyl-2-oxo-1H-1,4-benzodiazepin-3-yl]N', [3-(2,5,dihydro-4-hydroxy-2-oxothien,3-yl)phenyl]urea]	–
7.5	2.9	CN1C(=O)C(NC(=O)Nc2cccc(C3=C(O)CNC3=O)c2)N=C(C2CCCCC2)c2ccccc21 (racemic) [Example 2, N-[3(R,S)-5-Cyclohexyl-2,3-dihydro-1-methyl-2-oxo-1H-1,4-benzodiazepin-3-yl]N'-[3-(2,5-dihydro-4-hydroxy-2-oxopyrrol-3-yl)phenyl]urea]	–
